# Results taken from PubChem BioAssay (NCI).
#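 GI50: concentration for 50% inhibition of growth. TGI is the concentration that stops growth completely.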
# Legend:
# Assay in all cases: growth of human tumour cells (NCI), 384-well format
# 786-0 renal = tested on: 786-0 renal
# A549 NSCLC = tested on: A549 NSCLC
# BT-549 breast = tested on: BT-549 breast
# CCRF-CEM leukemia = tested on: CCRF-CEM leukemia
# COLO 205 colon = tested on: COLO 205 colon
# DU-145 prostate = tested on: DU-145 prostate
# EKVX NSCLC = tested on: EKVX NSCLC
# HCT-15 colon = tested on: HCT-15 colon
# HL-60(TB) leukemia = tested on: HL-60(TB) leukemia
# HOP-92 NSCLC = tested on: HOP-92 NSCLC
# HT29 colon = tested on: HT29 colon
# K-562 leukemia = tested on: K-562 leukemia
# LOX IMVI melanoma = tested on: LOX IMVI melanoma
# M14 melanoma = tested on: M14 melanoma
# MALME-3M melanoma = tested on: MALME-3M melanoma
# MCF7 breast = tested on: MCF7 breast
# MDA-MB-231 breast = tested on: MDA-MB-231 breast
# MDA-MB-468 breast = tested on: MDA-MB-468 breast
# MOLT-4 leukemia = tested on: MOLT-4 leukemia
# NCI-H226 lung = tested on: NCI-H226 lung
# NCI-H23 lung = tested on: NCI-H23 lung
# NCI-H322M lung = tested on: NCI-H322M lung
# NCI-H522 lung = tested on: NCI-H522 lung
# NCI/ADR-RES ovarian = tested on: NCI/ADR-RES ovarian
# OVCAR-4 ovarian = tested on: OVCAR-4 ovarian
# OVCAR-8 ovarian = tested on: OVCAR-8 ovarian
# PC-3 prostate = tested on: PC-3 prostate
# RPMI-8226 leukemia = tested on: RPMI-8226 leukemia
# RXF 393 renal = tested on: RXF 393 renal
# SF-295 CNS = tested on: SF-295 CNS
# SK-MEL-5 melanoma = tested on: SK-MEL-5 melanoma
# SR leukemia = tested on: SR leukemia
# T-47D breast = tested on: T-47D breast
# UACC-257 melanoma = tested on: UACC-257 melanoma
# UO-31 renal = tested on: UO-31 renal
# A498 renal = tested on: A498 renal
# ACHN renal = tested on: ACHN renal
# CAKI-1 renal = tested on: CAKI-1 renal
# HCC-2998 colon = tested on: HCC-2998 colon
# HCT-116 colon = tested on: HCT-116 colon
# HOP-62 NSCLC = tested on: HOP-62 NSCLC
# HS 578T breast = tested on: HS 578T breast
# IGROV1 ovarian = tested on: IGROV1 ovarian
# KM12 colon = tested on: KM12 colon
# MDA-MB-435 melanoma = tested on: MDA-MB-435 melanoma
# NCI-H460 NSCLC = tested on: NCI-H460 NSCLC
# OVCAR-3 ovarian = tested on: OVCAR-3 ovarian
# OVCAR-5 ovarian = tested on: OVCAR-5 ovarian
# SF-268 CNS = tested on: SF-268 CNS
# SF-539 CNS = tested on: SF-539 CNS
# SK-MEL-28 melanoma = tested on: SK-MEL-28 melanoma
# SK-OV-3 ovarian = tested on: SK-OV-3 ovarian
# SN12C renal = tested on: SN12C renal
# SNB-19 CNS = tested on: SNB-19 CNS
# SNB-75 CNS = tested on: SNB-75 CNS
# SW-620 colon = tested on: SW-620 colon
# TK-10 renal = tested on: TK-10 renal
# U251 glioblastoma = tested on: U251 glioblastoma
# UACC-62 melanoma = tested on: UACC-62 melanoma
structure (smiles),measurement,setting,value
CC(C)(O)c1ccc(N2CCN(c3nnc(Cc4ccccc4)c4ccccc34)CC2)nc1,GI50,786-0 renal,6.92 µM
same,GI50,A549 NSCLC,5.79 µM
same,GI50,BT-549 breast,6.9 µM
same,GI50,CCRF-CEM leukemia,3.83 µM
same,GI50,COLO 205 colon,4.39 µM
same,GI50,DU-145 prostate,5.86 µM
same,GI50,EKVX NSCLC,4.39 µM
same,GI50,HCT-15 colon,7.34 µM
same,GI50,HL-60(TB) leukemia,2.68 µM
same,TGI,HL-60(TB) leukemia,5.16 µM
same,GI50,HOP-92 NSCLC,8.09 µM
same,GI50,HT29 colon,9.38 µM
same,GI50,K-562 leukemia,4.85 µM
same,GI50,LOX IMVI melanoma,9.67 µM
same,GI50,M14 melanoma,8.59 µM
same,GI50,MALME-3M melanoma,3.24 µM
same,GI50,MCF7 breast,7.42 µM
same,GI50,MDA-MB-231 breast,3.22 µM
same,GI50,MDA-MB-468 breast,1.62 µM
same,TGI,MDA-MB-468 breast,4.37 µM
same,GI50,MOLT-4 leukemia,2.07 µM
same,TGI,MOLT-4 leukemia,3.86 µM
same,GI50,NCI-H226 lung,6.6 µM
same,GI50,NCI-H23 lung,4.38 µM
same,GI50,NCI-H322M lung,8.82 µM
same,GI50,NCI-H522 lung,6.23 µM
same,GI50,NCI/ADR-RES ovarian,3.02 µM
same,GI50,OVCAR-4 ovarian,3.75 µM
same,GI50,OVCAR-8 ovarian,5.64 µM
same,GI50,PC-3 prostate,9.46 µM
same,GI50,RPMI-8226 leukemia,2.18 µM
same,TGI,RPMI-8226 leukemia,5.27 µM
same,GI50,RXF 393 renal,6.29 µM
same,GI50,SF-295 CNS,7.65 µM
same,GI50,SK-MEL-5 melanoma,2.17 µM
same,TGI,SK-MEL-5 melanoma,4.19 µM
same,GI50,SR leukemia,2.08 µM
same,TGI,SR leukemia,5.25 µM
same,GI50,T-47D breast,1.92 µM
same,TGI,T-47D breast,6.25 µM
same,GI50,UACC-257 melanoma,5.3 µM
same,GI50,UO-31 renal,6.13 µM
O=C(Nc1cccc(Cl)c1)Nc1ncc(CCNc2ncnc3ccsc23)s1,GI50,786-0 renal,1.97 µM
same,TGI,786-0 renal,11.4 µM
same,GI50,A498 renal,0.839 µM
same,TGI,A498 renal,18.5 µM
same,GI50,A549 NSCLC,0.121 µM
same,TGI,A549 NSCLC,15.4 µM
same,GI50,ACHN renal,1.52 µM
same,TGI,ACHN renal,17.3 µM
same,GI50,BT-549 breast,1.07 µM
same,TGI,BT-549 breast,11.4 µM
same,GI50,CAKI-1 renal,1.15 µM
same,TGI,CAKI-1 renal,14.1 µM
same,GI50,DU-145 prostate,4.52 µM
same,TGI,DU-145 prostate,18.1 µM
same,GI50,EKVX NSCLC,1.68 µM
same,TGI,EKVX NSCLC,16.1 µM
same,GI50,HCC-2998 colon,10.3 µM
same,TGI,HCC-2998 colon,22 µM
same,GI50,HCT-116 colon,0.754 µM
same,TGI,HCT-116 colon,14.5 µM
same,GI50,HCT-15 colon,1.47 µM
same,TGI,HCT-15 colon,15.6 µM
same,GI50,HL-60(TB) leukemia,< 0.01 µM
same,TGI,HL-60(TB) leukemia,3.63 µM
same,GI50,HOP-62 NSCLC,0.356 µM
same,TGI,HOP-62 NSCLC,11 µM
same,GI50,HOP-92 NSCLC,3.53 µM
same,TGI,HOP-92 NSCLC,18.4 µM
same,GI50,HS 578T breast,0.104 µM
same,TGI,HS 578T breast,6.01 µM
same,GI50,HT29 colon,2.42 µM
same,TGI,HT29 colon,14.5 µM
same,GI50,IGROV1 ovarian,3.39 µM
same,TGI,IGROV1 ovarian,16 µM
same,GI50,K-562 leukemia,1.34 µM
same,TGI,K-562 leukemia,14.1 µM
same,GI50,KM12 colon,0.118 µM
same,TGI,KM12 colon,13.2 µM
same,GI50,LOX IMVI melanoma,1.25 µM
same,TGI,LOX IMVI melanoma,13.8 µM
same,GI50,M14 melanoma,1.79 µM
same,TGI,M14 melanoma,14.8 µM
same,GI50,MALME-3M melanoma,6.41 µM
same,TGI,MALME-3M melanoma,19.5 µM
same,GI50,MCF7 breast,1.49 µM
same,TGI,MCF7 breast,13 µM
same,GI50,MDA-MB-231 breast,8.07 µM
same,TGI,MDA-MB-231 breast,20.8 µM
same,GI50,MDA-MB-435 melanoma,10 µM
same,TGI,MDA-MB-435 melanoma,21.6 µM
same,GI50,MDA-MB-468 breast,0.0283 µM
same,TGI,MDA-MB-468 breast,0.242 µM
same,GI50,MOLT-4 leukemia,< 0.01 µM
same,GI50,NCI-H226 lung,2.94 µM
same,TGI,NCI-H226 lung,16.3 µM
same,GI50,NCI-H23 lung,2.59 µM
same,TGI,NCI-H23 lung,16 µM
same,GI50,NCI-H322M lung,6.64 µM
same,TGI,NCI-H322M lung,19.6 µM
same,GI50,NCI-H460 NSCLC,0.0433 µM
same,TGI,NCI-H460 NSCLC,10.6 µM
same,GI50,NCI-H522 lung,0.356 µM
same,TGI,NCI-H522 lung,12.1 µM
same,GI50,NCI/ADR-RES ovarian,2.44 µM
same,TGI,NCI/ADR-RES ovarian,11 µM
same,GI50,OVCAR-3 ovarian,0.174 µM
same,TGI,OVCAR-3 ovarian,15 µM
same,GI50,OVCAR-4 ovarian,9.02 µM
same,TGI,OVCAR-4 ovarian,21.3 µM
same,GI50,OVCAR-5 ovarian,8.83 µM
same,TGI,OVCAR-5 ovarian,21.2 µM
same,GI50,OVCAR-8 ovarian,2.2 µM
same,TGI,OVCAR-8 ovarian,12 µM
same,GI50,PC-3 prostate,3.15 µM
same,TGI,PC-3 prostate,13.2 µM
same,GI50,RPMI-8226 leukemia,0.308 µM
same,TGI,RPMI-8226 leukemia,11.5 µM
same,GI50,RXF 393 renal,0.0169 µM
same,TGI,RXF 393 renal,2.55 µM
same,GI50,SF-268 CNS,< 0.01 µM
same,TGI,SF-268 CNS,0.781 µM
same,GI50,SF-295 CNS,2.17 µM
same,TGI,SF-295 CNS,18.1 µM
same,GI50,SF-539 CNS,0.306 µM
same,TGI,SF-539 CNS,14.7 µM
same,GI50,SK-MEL-28 melanoma,10.4 µM
same,TGI,SK-MEL-28 melanoma,22.2 µM
same,GI50,SK-MEL-5 melanoma,1.08 µM
same,TGI,SK-MEL-5 melanoma,2.53 µM
same,GI50,SK-OV-3 ovarian,5.02 µM
same,TGI,SK-OV-3 ovarian,19 µM
same,GI50,SN12C renal,3.01 µM
same,TGI,SN12C renal,18.2 µM
same,GI50,SNB-19 CNS,11.7 µM
same,TGI,SNB-19 CNS,24 µM
same,GI50,SNB-75 CNS,4.06 µM
same,TGI,SNB-75 CNS,17 µM
same,GI50,SW-620 colon,14.6 µM
same,TGI,SW-620 colon,27.8 µM
same,GI50,T-47D breast,0.228 µM
same,TGI,T-47D breast,2.36 µM
same,GI50,TK-10 renal,9.81 µM
same,TGI,TK-10 renal,21.6 µM
same,GI50,U251 glioblastoma,7.52 µM
same,TGI,U251 glioblastoma,20.7 µM
same,GI50,UACC-257 melanoma,4.81 µM
same,TGI,UACC-257 melanoma,18.3 µM
same,GI50,UACC-62 melanoma,1 µM
same,TGI,UACC-62 melanoma,16 µM
same,GI50,UO-31 renal,3.5 µM
same,TGI,UO-31 renal,19.7 µM
